Assay results reported in patent US20080090734A1, “DRUG SCREENING AND TARGET IDENTIFICATION USING SPR IMAGING OF TARGET PROTEIN ARRAYS” (The Trustees of California State University, priority 2006, published 2008).

Columns and labels:
Test in all cases: Antibiotic susceptibility profile
Type in all cases: cell-based, Acinetobacter baumannii
Design in all cases: key: Resistance; Intermediate; Susceptible
[1] = tested on: A. baumannii clinical isolate NY B
Source text: (§1) We obtained over thirty clinical isolates of A. baumannii from nosocomial infections in New York City and Los Angeles. […] Only antibiotics with breakpoints for A. baumannii were used. […] Isolates LA 01 to 20 were acquired from Los Angels County while NY-A to NY-H were obtained from New York City.
(§2) Antibiotic susceptibility profiles of clinical isolates of A. baumannii and reference strains. R, I, and S denote Resistance, Intermediate and Susceptible, respectively. Genetic Profiling of Clinical Isolates of A. baumannii

[2] = tested on: A. baumannii clinical isolate LAC 13
Source text: as §1, §2

[3] = tested on: A. baumannii clinical isolate LAC 04
Source text: as §1, §2

[4] = tested on: A. baumannii clinical isolate NY D
Source text: as §1, §2

[5] = tested on: A. baumannii clinical isolate LAC 16
Source text: as §1, §2

[6] = tested on: A. baumannii clinical isolate LAC 02
Source text: as §1, §2

[7] = tested on: A. baumannii clinical isolate NY C
Source text: as §1, §2

[8] = tested on: A. baumannii clinical isolate NY A
Source text: as §1, §2

[9] = tested on: A. baumannii reference strain 17978; settings: strain 17978 (ATCC)
Source text: as §1, §2

[10] = tested on: A. baumannii clinical isolate NY G
Source text: as §1, §2

[11] = tested on: A. baumannii clinical isolate LAC 18
Source text: as §1, §2

[12] = tested on: A. baumannii reference strain AYE
Source text: as §1, §2

[13] = tested on: A. baumannii clinical isolate LAC 03
Source text: as §1, §2

[14] = tested on: A. baumannii clinical isolate LAC 07
Source text: as §1, §2

[15] = tested on: A. baumannii clinical isolate LAC 06
Source text: as §1, §2

[16] = tested on: A. baumannii clinical isolate LAC 12
Source text: as §1, §2

[17] = tested on: A. baumannii clinical isolate LAC 17
Source text: as §1, §2

[18] = tested on: A. baumannii clinical isolate LAC 11
Source text: as §1, §2

[19] = tested on: A. baumannii reference strain SDF
Source text: as §1, §2

[20] = tested on: A. baumannii clinical isolate NY H
Source text: as §1, §2

[21] = tested on: A. baumannii clinical isolate LAC 05
Source text: as §1, §2

[22] = tested on: A. baumannii clinical isolate NY F
Source text: as §1, §2

[23] = tested on: A. baumannii reference strain 15839; settings: strain 15839 (ATCC)
Source text: as §1, §2

[24] = tested on: A. baumannii clinical isolate LAC 15
Source text: as §1, §2

[25] = tested on: A. baumannii clinical isolate LAC 09
Source text: as §1, §2

[26] = tested on: A. baumannii reference strain 19606; settings: strain 19606 (ATCC)
Source text: as §1, §2

[27] = tested on: A. baumannii clinical isolate LAC 14
Source text: as §1, §2

[28] = tested on: A. baumannii clinical isolate LAC 19
Source text: as §1, §2

[29] = tested on: A. baumannii clinical isolate NY E
Source text: as §1, §2

[30] = tested on: A. baumannii clinical isolate LAC 10
Source text: as §1, §2

[31] = tested on: A. baumannii clinical isolate LAC 01
Source text: as §1, §2

[32] = tested on: A. baumannii clinical isolate LAC 08
Source text: as §1, §2

[33] = tested on: A. baumannii clinical isolate LAC 20
Source text: as §1, §2

Molecule | Antibiotic susceptibility [1] | Antibiotic susceptibility [2] | Antibiotic susceptibility [3] | Antibiotic susceptibility [4] | Antibiotic susceptibility [5] | Antibiotic susceptibility [6] | Antibiotic susceptibility [7] | Antibiotic susceptibility [8] | Antibiotic susceptibility [9] | Antibiotic susceptibility [10] | Antibiotic susceptibility [11] | Antibiotic susceptibility [12] | Antibiotic susceptibility [13] | Antibiotic susceptibility [14] | Antibiotic susceptibility [15] | Antibiotic susceptibility [16] | Antibiotic susceptibility [17] | Antibiotic susceptibility [18] | Antibiotic susceptibility [19] | Antibiotic susceptibility [20] | further results
NC[C@H]1O[C@H](O[C@H]2[C@H](O)[C@@H](O[C@H]3O[C@H](CO)[C@@H](O)[C@H](N)[C@H]3O)[C@H](N)C[C@@H]2N)[C@H](N)C[C@@H]1O [TOB, Tobramycin] | R | S | R | R | R | R | R | R | S | I | R | R | R | R | S | S | R | S | S | R | Antibiotic susceptibility [21]: R; Antibiotic susceptibility [22]: R; Antibiotic susceptibility [23]: R; Antibiotic susceptibility [24]: S; Antibiotic susceptibility [25]: R; Antibiotic susceptibility [26]: S; Antibiotic susceptibility [27]: S; Antibiotic susceptibility [28]: R; Antibiotic susceptibility [29]: R; Antibiotic susceptibility [30]: R; Antibiotic susceptibility [31]: R; Antibiotic susceptibility [32]: R; Antibiotic susceptibility [33]: R
Gentamicin | R | I | R | R | R | I | R | R | S | S | R | R | R | R | R | R | R | R | S | R | Antibiotic susceptibility [21]: R; Antibiotic susceptibility [22]: R; Antibiotic susceptibility [23]: R; Antibiotic susceptibility [24]: I; Antibiotic susceptibility [25]: R; Antibiotic susceptibility [26]: R; Antibiotic susceptibility [27]: R; Antibiotic susceptibility [28]: R; Antibiotic susceptibility [29]: R; Antibiotic susceptibility [30]: R; Antibiotic susceptibility [31]: R; Antibiotic susceptibility [32]: R; Antibiotic susceptibility [33]: R
NCC[C@H](O)C(=O)N[C@@H]1C[C@H](N)[C@@H](O[C@H]2O[C@H](CN)[C@@H](O)[C@H](O)[C@H]2O)[C@H](O)[C@H]1O[C@H]1O[C@H](CO)[C@@H](O)[C@H](N)[C@H]1O [AMK, Amikacin] | I | S | I | R | R | I | R | I | S | S | I | R | I | R | S | S | I | S | S | R | Antibiotic susceptibility [21]: R; Antibiotic susceptibility [22]: R; Antibiotic susceptibility [23]: R; Antibiotic susceptibility [24]: R; Antibiotic susceptibility [25]: R; Antibiotic susceptibility [26]: S; Antibiotic susceptibility [27]: S; Antibiotic susceptibility [28]: R; Antibiotic susceptibility [29]: S; Antibiotic susceptibility [30]: R; Antibiotic susceptibility [31]: S; Antibiotic susceptibility [32]: I; Antibiotic susceptibility [33]: I
COc1c(N2CCNC(C)C2)c(F)cc2c(=O)c(C(=O)O)cn(C3CC3)c12 (stereo not drawn) [GAT, Gatifloxacin] | R | R | S | R | R | R | R | R | S | R | R | I | R | R | S | R | R | R | S | R | Antibiotic susceptibility [21]: R; Antibiotic susceptibility [22]: R; Antibiotic susceptibility [23]: R; Antibiotic susceptibility [24]: R; Antibiotic susceptibility [25]: R; Antibiotic susceptibility [26]: S; Antibiotic susceptibility [27]: R; Antibiotic susceptibility [28]: I; Antibiotic susceptibility [29]: R; Antibiotic susceptibility [30]: R; Antibiotic susceptibility [31]: R; Antibiotic susceptibility [32]: R; Antibiotic susceptibility [33]: R
